Reference: patent publication US11472791B2 (Incyte Corporation, priority 2019, dated 2022)

Molecular target: CDK2/Cyclin E1 (Homo sapiens (Human), UniProt P24941)
Assay: CDK2/Cyclin E1 HTRF enzyme activity assay
Format: biochemical
Conditions: 1 mM ATP
Description: Assays are conducted in white 384-well polystyrene plates in a final reaction volume of 8 μL. […] HTRF signals are read after 1 hour at room temperature on a PHERAstar FS plate reader (BMG Labtech). Data is analyzed with IDBS XLFit and GraphPad Prism 5.0 software using a three or four parameter dose response curve to determine IC50 for each compound.

Row | SMILES | IC50 [nM]
1 | CC(C)(O)Cn1cc(-c2nc(NC3CCN(S(=O)(=O)CCCN4CCC(C#N)CC4)CC3)ncc2C(F)(F)F)cn1 [Example 76, 1-(3-((4-((4-(1-(2-Hydroxy-2-methylpropyl)-1H-pyrazol-4-yl)-5-(trifluoromethyl)pyrimidin-2-yl)amino)piperidin-1-yl)sulfonyl)propyl)piperidine-4-carbonitrile] | < 50
2 | COC1CCN(CCCS(=O)(=O)N2CCC(Nc3ncc(C(F)(F)F)c(-c4cnn(CC(C)(C)O)c4)n3)CC2)CC1 [Example 77, 1-(4-(2-((1-((3-(4-Methoxypiperidin-1-yl)propyl)sulfonyl)piperidin-4-yl)amino)-5-(trifluoromethyl)pyrimidin-4-yl)-1H-pyrazol-1-yl)-2-methylpropan-2-ol] | < 50
3 | CN(C)CCCCS(=O)(=O)N1CCC(Nc2ncc(C(F)(F)F)c(-c3cnn(CC(C)(C)O)c3)n2)CC1 [Example 78, 1-(4-(2-((1-((4-(Dimethylamino)butyl)sulfonyl)piperidin-4-yl)amino)-5-(trifluoromethyl)pyrimidin-4-yl)-1H-pyrazol-1-yl)-2-methylpropan-2-ol] | < 50
4 | CCN(CC)CCCCS(=O)(=O)N1CCC(Nc2ncc(C(F)(F)F)c(-c3cnn(CC(C)(C)O)c3)n2)CC1 [Example 79, 1-(4-(2-((1-((4-(Diethylamino)butyl)sulfonyl)piperidin-4-yl)amino)-5-(trifluoromethyl)pyrimidin-4-yl)-1H-pyrazol-1-yl)-2-methylpropan-2-ol] | < 50
5 | CC(C)(O)Cn1cc(-c2nc(NC3CCN(S(=O)(=O)CCCCN4CCCC4)CC3)ncc2C(F)(F)F)cn1 [Example 80, 2-Methyl-1-(4-(2-((1-((4-(pyrrolidin-1-yl)butyl)sulfonyl)piperidin-4-yl)amino)-5-(trifluoromethyl)pyrimidin-4-yl)-1H-pyrazol-1-yl)propan-2-ol] | < 50
6 | CC(C)(O)Cn1cc(-c2nc(NC3CCN(S(=O)(=O)CCCCN4CCCCC4)CC3)ncc2C(F)(F)F)cn1 [Example 81, 2-Methyl-1-(4-(2-((1-((4-(piperidin-1-yl)butyl)sulfonyl)piperidin-4-yl)amino)-5-(trifluoromethyl)pyrimidin-4-yl)-1H-pyrazol-1-yl)propan-2-ol] | < 50
7 | CC(C)(O)Cn1cc(-c2nc(NC3CCN(S(=O)(=O)CCN4CCCC4)CC3)ncc2C(F)(F)F)cn1 [Example 82, 2-Methyl-1-(4-(2-((1-((2-(pyrrolidin-1-yl)ethyl)sulfonyl)piperidin-4-yl)amino)-5-(trifluoromethyl)pyrimidin-4-yl)-1H-pyrazol-1-yl)propan-2-ol] | < 50
8 | CN(C)CCS(=O)(=O)N1CCC(Nc2ncc(C(F)(F)F)c(-c3cnn(CC(C)(C)O)c3)n2)CC1 [Example 83, 1-(4-(2-((1-((2-(Dimethylamino)ethyl)sulfonyl)piperidin-4-yl)amino)-5-(trifluoromethyl)pyrimidin-4-yl)-1H-pyrazol-1-yl)-2-methylpropan-2-ol] | < 50
9 | CC(C)(O)Cn1cc(-c2nc(NC3CCN(S(=O)(=O)CCN4CCOCC4)CC3)ncc2C(F)(F)F)cn1 [Example 84, 2-Methyl-1-(4-(2-((1-((2-morpholinoethyl)sulfonyl)piperidin-4-yl)amino)-5-(trifluoromethyl)pyrimidin-4-yl)-1H-pyrazol-1-yl)propan-2-ol] | < 50
10 | CN1CC(S(=O)(=O)N2CCC(Nc3ncc(C(F)(F)F)c(-c4cnn(CC(C)(C)O)c4)n3)CC2)C1 [Example 85, 2-Methyl-1-(4-(2-((1-((1-methylazetidin-3-yl)sulfonyl)piperidin-4-yl)amino)-5-(trifluoromethyl)pyrimidin-4-yl)-1H-pyrazol-1-yl)propan-2-ol] | < 50
11 | CN1CCC(S(=O)(=O)N2CCC(Nc3ncc(C(F)(F)F)c(-c4cnn(CC(C)(C)O)c4)n3)CC2)CC1 [Example 87, 2-Methyl-1-(4-(2-((1-((1-methylpiperidin-4-yl)sulfonyl)piperidin-4-yl)amino)-5-(trifluoromethyl)pyrimidin-4-yl)-1H-pyrazol-1-yl)propan-2-ol] | < 50
12 | CC(C)(O)Cn1cc(-c2nc(NC3CCN(S(=O)(=O)CCCO)CC3)ncc2C(F)(F)F)cn1 [Example 92, 3-((4-((4-(1-(2-Hydroxy-2-methylpropyl)-1H-pyrazol-4-yl)-5-(trifluoromethyl)pyrimidin-2-yl)amino)piperidin-1-yl)sulfonyl)propan-1-ol] | < 50
13 | CC(C)(O)Cn1cc(-c2nc(NC3CCN(S(=O)(=O)CCCCO)CC3)ncc2C(F)(F)F)cn1 [Example 93, 4-((4-((4-(1-(2-Hydroxy-2-methylpropyl)-1H-pyrazol-4-yl)-5-(trifluoromethyl)pyrimidin-2-yl)amino)piperidin-1-yl)sulfonyl)butan-1-ol] | < 50
14 | CC(C)(O)CCS(=O)(=O)N1CCC(Nc2ncc(C(F)(F)F)c(-c3cnn(CC(C)(C)O)c3)n2)CC1 [Example 94, 4-((4-((4-(1-(2-Hydroxy-2-methylpropyl)-1H-pyrazol-4-yl)-5-(trifluoromethyl)pyrimidin-2-yl)amino)piperidin-1-yl)sulfonyl)-2-methylbutan-2-ol] | < 50
15 | CCS(=O)(=O)N1CCC(Nc2ncc(C(F)(F)F)c(-c3cnn(C(C)(C)C(N)=O)c3)n2)CC1 [Example 97, 2-(4-(2-((1-(Ethylsulfonyl)piperidin-4-yl)amino)-5-(trifluoromethyl)pyrimidin-4-yl)-1H-pyrazol-1-yl)-2-methylpropanamide] | < 50
16 | CC(C)(C(N)=O)n1cc(-c2nc(NC3CCN(S(=O)(=O)C4CC4)CC3)ncc2C(F)(F)F)cn1 [Example 98, 2-(4-(2-((1-(Cyclopropylsulfonyl)piperidin-4-yl)amino)-5-(trifluoromethyl)pyrimidin-4-yl)-1H-pyrazol-1-yl)-2-methylpropanamide] | < 50
17 | Cc1cc(CN2CCN(C)CC2)ccc1-n1cc(-c2nc(NC3CCN(S(=O)(=O)c4cn(C)cn4)CC3)ncc2C(F)(F)F)cn1 [Example 100, N-(1-((1-Methyl-1H-imidazol-4-yl)sulfonyl)piperidin-4-yl)-4-(1-(2-methyl-4-((4-methylpiperazin-1-yl)methyl)phenyl)-1H-pyrazol-4-yl)-5-(trifluoromethyl)pyrimidin-2-amine] | < 50
18 | Cc1cc(CN2CCN(C)CC2)ccc1-n1cc(-c2nc(N[C@H]3CCN(S(C)(=O)=O)C[C@H]3F)ncc2C(F)(F)F)cn1 [Example 101, N-((3R,4S)-3-Fluoro-1-(methylsulfonyl)piperidin-4-yl)-4-(1-(2-methyl-4-((4-methylpiperazin-1-yl)methyl)phenyl)-1H-pyrazol-4-yl)-5-(trifluoromethyl)pyrimidin-2-amine] | < 50
19 | Cc1cc(CN2CCN(C)CC2)ccc1-n1cc(-c2nc(N[C@H]3CCN(S(=O)(=O)c4cn(C)cn4)C[C@H]3F)ncc2C(F)(F)F)cn1 [Example 102, N-((3R,4S)-3-Fluoro-1-((1-methyl-1H-imidazol-4-yl)sulfonyl)piperidin-4-yl)-4-(1-(2-methyl-4-((4-methylpiperazin-1-yl)methyl)phenyl)-1H-pyrazol-4-yl)-5-(trifluoromethyl)pyrimidin-2-amine] | < 50
